Measured values published in US20050136040A1, “Control of gene expression using a complex of an oligonucleotide and a regulatory peptide” (Imperial College Innovations Limited, priority 2001, published 2005).
[5FU] = 5-fluoro-deoxyuracil base

Legend:
[1] = system: androgen receptor gene; assay: RT-PCR of androgen receptor mRNA, LNCap cells treated with ARP-L218 and cyproterone acetate; assay type: cell-based, human; details: 3 days
Procedure: (§1) RT-PCR analysis of androgen receptor mRNA. After ethidium bromide staining the quantity of electrophoresed amplicons was determined in arbitrary units using a Labworks image reader.
ARP-L218 was prepared in phosphate buffer saline (PBS), 0.2 μm syringed filtered and used on day of test set-up.
(§2) LNCap cells were transfected with ARP-L218 using lipofectamine2000 (cationic activated dendrimer, InVitrogen life technologies) with/without antagonist. Various amounts of ARP-L218 were mixed with a fixed amount of lipofectamine2000 (3 μl) in a total volume of 100 μl serum free medium without antibiotics (OptiMEM). After 20 mins incubation at room temperature, the transfection mixture was added to cells at 70% confluency and cells were incubated for 3 days.
(§3) RNA was extracted and RT-PCR analysis of AR mRNA levels conducted as described above.

[2] = system: PSA; assay: Secreted PSA by immunoassay in LnCap cells with or without R1881 (Example 2); assay type: cell-based, human; details: LnCap control cells (no or irrelevant oligonucleotide-peptide fusion), 72 hours
Procedure: In an example, the prostate cancer cell line LnCap is treated with the oligonucleotide-peptide fusion comprising a MAD1 or Sap18 peptide as described in Example 1. Transfected cells are optionally identified and/or isolated (for example using a GFP marker and FACS techniques) and are assayed for androgen receptor gene expression as well as for the classic prostate cancer marker PSA. For example, GFP-positive, FACS sorted cells were cultured in the presence or absence of the AR agonist R1881. After 72 hours, culture media were collected and the amount of the androgen-regulated protein PSA determined by immunoassay. Addition of R1881 results in an approximately 25-fold increase in levels of secreted PSA in control cells (with no oligonucleotide-peptide fusion, or an irrelevant oligonucleotide-peptide fusion).

[3] = system: androgen receptor gene; assay: RT-PCR of androgen receptor mRNA, LNCap cells treated with ARP-L218 and R1881; assay type: cell-based, human; details: 3 days; for AR mRNA Percentage of control: vs PBS treated control
Procedure: as §1
The effect of ARP-L218 on androgen receptor gene expression with and without a synthetic androgen (R1881) was measured using the protocol outlined in the above section.
ARP-L218 was prepared in phosphate buffer saline (PBS), 0.2 μm syringed filtered and used on day of test set-up. R1881 (synthetic androgen) was purchased from Perkin Elmer, Catalogue number NLP005005MG.
as §2, with “agonist.” for “antagonist.”
as §3

[4] = system: Prostate specific antigens (PSA) protein levels; assay: Total PSA in LNCap cell supernatants, chemiluminescent immunometric assay; assay type: cell-based, human; details: LNCap supernatant, 3 days
Procedure: Cells were incubated in the presence of R1881 for 3 days. PSA levels in the supernatants were measure by ELISA. Each column represent total prostate specific antigen (PSA).
Therefore, using the protocols described in Example 8 ARP-L218 was transfected into LNCap cells (GET/LNC/W39/P6) with Lipofectamine 2000 (InVitrogen) with or without R1881 (Perkin Elmer), a synthetic androgen, for 3 days, after which the supernatant were harvested for quantitation of total PSA protein at the Pathology Centre, Hammersrnith Hospital, London, U.K.
PSA measurements were carried out by a chemiluminescent labelled immunometric assay using an automated immunoassay analyser (Abbott Architect Immunoassay Analyser).

[5] = system: interferon stimulated response element (IRE) of the human 6-16 gene; assay: Interferon-induced EGFP expression by FACS in modified HT1080 cells (C8); assay type: cell-based; details: for Interferon-induced GFP expression: +INF 300 units/ml for one day
Procedure: Cells habouring EGFP under the control of the interferon stimulated response element (ISRE) of the human 6-16 gene were transiently transfected with different compounds. Cells were then treated with 300 units/ml of IFN for one day and analysed by FACS for the GFP expression. • a) Parental cell line, no treatment • b) Cells expressing the stably transfected construct (C8), no treatment • c) C8 treated with interferon (+INF) • d) C8 transfected with 500 pm TFO, +INF • e) C8 specific TFO 1000 pM, +INF • f) C8, GeneICE1 500 pM, +INF • g) C8, GeneICE 2 500 pM, +INF • h) C8, unspecific control TFO 500 pM, +INF • i) C8, unspecific control TFO 1000 pM, +INF
These cells have a stably incorporated gene expressing EGFP under the control of the interferon stimulated response element (IRE) of the human 6-16 gene.
For the following data, cells were transiently transfected with different compounds using standard lipofectamine protocols. Cells were then treated with 300 units/ml of interferon (INF) for one day and analysed by FACS for the GFP expression.

## CC(=O)O[C@]1(C(C)=O)CC[C@H]2[C@@H]3C=C(Cl)C4=CC(=O)[C@@H]5C[C@@H]5[C@]4(C)[C@H]3CC[C@@]21C [Cyproterone Acetate, Cyproterone acetate]
[1]
  androgen receptor gene expression levels (in words): can act to reduce AR gene expression
[1]; Cyproterone Acetate 0.1 nM
  AR band quantitation: 2357
  AR mRNA % of control: 54.0%
[1]; Cyproterone Acetate 10 nM
  AR band quantitation: 2401
  AR mRNA % of control: 51.5%
[1]; Cyproterone Acetate 1 uM
  AR band quantitation: 1868
  AR mRNA % of control: 47.8%
[1]; Cyproterone Acetate 10 uM
  AR band quantitation: 1568

## C[C@]1(O)CC[C@H]2[C@@H]3CCC4=CC(=O)CCC4=C3C=C[C@@]21C [R1881]
[2]
  increase in levels of secreted PSA on addition of R1881: approximately 25 fold
[3]
  androgen receptor gene expression levels (in words): can act to reduce AR gene expression
[3]; R1881 0.01 nM
  AR Ratio/beta-actin: 0.237
  AR band quantitation: 2083
  AR band quantitation Average: 2083
  AR mRNA Percentage of control: 71.73%
[3]; R1881 1 nM
  AR Ratio/beta-actin: 0.103
  AR band quantitation: 1471
  AR band quantitation Average: 1471
  AR mRNA Percentage of control: 31.29%
[3]; R1881 100 nM
  AR Ratio/beta-actin: 0.116
  AR band quantitation: 1455
  AR band quantitation Average: 1455
  AR mRNA Percentage of control: 35.17%
[3]; R1881 1 uM
  AR Ratio/beta-actin: 0.165
  AR band quantitation: 1388
  AR band quantitation Average: 1388
  AR mRNA Percentage of control: 49.92%
[4]
  effect on PSA levels (in words): show an increase in PSA levels
[4]; R1881 0.01 nM
  Total PSA: 372 ng/mL
[4]; R1881 100 nM
  Total PSA: 1980 ng/mL

## specific TFO: IRE TFO (5′) GGGUGGTGGGGTTGTGTT (3′), U = 5-fluro-deoxyuracil, without peptide (DNA, [5FU] at 4, backbone not given here)
[5]; 500 pM
  Interferon-induced GFP expression: 53%
[5]; 1000 pM
  Interferon-induced GFP expression: 63%
[5]; +INF, average over the conditions of Table 4
  average repression of INF induced GFP expression: 42%
